Test results from PubChem BioAssay AID248 (DTP/NCI, 2004).
“And” between values parts separate entries of the source, which are not always exact repeats. Identical values can stand only once. Toxic doses and inconclusive results are not listed.

Tested on: L1210 leukemia ip in BDF1 mice, survival T/C
Assay: NCI In Vivo Anticancer Drug Screen. Data for tumor model L1210 Leukemia (intraperitoneal) in B6D2F1 (BDF1) mice
Details: endpoint: mean survival time, higher = longer survival
How it was run: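 Ratio derived from survival: compound-dosed mice over vehicle-dosed mice, all bearing a transplantable tumor.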

[1] = dose: 100.0 mg/kg/injection, schedule: Q01DX001 (ip), vehicle: Klucel (hydroxypropylcellulose) (HPC)
[2] = dose: 200.0 mg/kg/injection, schedule: Q01DX001 (ip), vehicle: Klucel (hydroxypropylcellulose) (HPC)
[3] = dose: 400.0 mg/kg/injection, schedule: Q01DX001 (ip), vehicle: Klucel (hydroxypropylcellulose) (HPC)
[4] = dose: 100.0 mg/kg/injection, schedule: Q04DX003 (ip), vehicle: saline
[5] = dose: 200.0 mg/kg/injection, schedule: Q04DX003 (ip), vehicle: saline
[6] = dose: 400.0 mg/kg/injection, schedule: Q04DX003 (ip), vehicle: saline
[7] = dose: 100.0 mg/kg/injection, schedule: Q01DX001 (ip), vehicle: saline
[8] = dose: 200.0 mg/kg/injection, schedule: Q01DX001 (ip), vehicle: saline
[9] = dose: 400.0 mg/kg/injection, schedule: Q01DX001 (ip), vehicle: saline
[10] = dose: 50.0 mg/kg/injection, schedule: Q04DX003 (ip), vehicle: Klucel (hydroxypropylcellulose) (HPC)
[11] = dose: 100.0 mg/kg/injection, schedule: Q04DX003 (ip), vehicle: Klucel (hydroxypropylcellulose) (HPC)
[12] = dose: 75.0 mg/kg/injection, schedule: Q01DX001 (ip), vehicle: saline

O=C(c1ccccc1)C1CSS(=O)(=O)C1c1ccccc1 (stereo not drawn)
T/C [1]: 97 % of control | T/C [2]: 99 % of control | T/C [3]: 92 % of control

Cc1ccc(/C([O-])=C(\C(=S)Nc2cccc(Cl)c2)[n+]2ccccc2)cc1
T/C (dose: 100.0 mg/kg/injection, schedule: Q01DX009 (ip), vehicle: Klucel (hydroxypropylcellulose) (HPC)): 104 % of control | T/C (dose: 200.0 mg/kg/injection, schedule: Q01DX009 (ip), vehicle: Klucel (hydroxypropylcellulose) (HPC)): 95 % of control | T/C (dose: 400.0 mg/kg/injection, schedule: Q01DX009 (ip), vehicle: Klucel (hydroxypropylcellulose) (HPC)): 108 % of control

CCCCCCCCC(CO)CCCCCC (stereo not drawn)
T/C [4]: 100 % of control | T/C [5]: 106 % of control | T/C [6]: 92 % of control

CCCCCCC(C)(C)NC(N)=O
T/C [7]: 98 % of control | T/C [8]: 101 % of control | T/C [9]: 93 % of control

O=C(O)c1ccccc1-c1ccc([N+](=O)[O-])cc1Cl
T/C (dose: 177.0 mg/kg/injection, schedule: Q01DX001 (ip), vehicle: carboxymethylcellulose (CMC)): 106 % of control | T/C (dose: 266.0 mg/kg/injection, schedule: Q01DX001 (ip), vehicle: carboxymethylcellulose (CMC)): 98 % of control | T/C (dose: 400.0 mg/kg/injection, schedule: Q01DX001 (ip), vehicle: carboxymethylcellulose (CMC)): 104 % of control

CC1(C)CCC(C)(C)C2CC3CC4C(CC3CC21)C(C)(C)CCC4(C)C (stereo not drawn)
T/C [7]: 89 % of control | T/C [8]: 104 % of control | T/C [9]: 97 % of control

Nc1c(Cl)ncnc1Nc1ccc(O)cc1
T/C (dose: 25.0 mg/kg/injection, schedule: Q04DX003 (ip), vehicle: Klucel (hydroxypropylcellulose) (HPC)): 96 % of control | T/C [10]: 96 % of control | T/C [11]: 101 % of control

Cl[C](Cl)(Cl)[Hg][c]1ccccc1
T/C (dose: 3.0 mg/kg/injection, schedule: Q01DX009 (ip), vehicle: Klucel (hydroxypropylcellulose) (HPC)): 88 % of control | T/C (dose: 6.0 mg/kg/injection, schedule: Q01DX009 (ip), vehicle: Klucel (hydroxypropylcellulose) (HPC)): 92 % of control | T/C (dose: 12.0 mg/kg/injection, schedule: Q01DX009 (ip), vehicle: Klucel (hydroxypropylcellulose) (HPC)): 90 % of control | T/C (dose: 12.5 mg/kg/injection, schedule: Q01DX009 (ip), vehicle: Klucel (hydroxypropylcellulose) (HPC)): 110 % of control

c1ccc(CC(c2ccccc2)(c2ccccc2)c2ccccc2)cc1
T/C (dose: 25.6 mg/kg/injection, schedule: Q04DX002 (ip), vehicle: saline with Tween-80): 89 % of control | T/C (dose: 64.0 mg/kg/injection, schedule: Q04DX002 (ip), vehicle: saline with Tween-80): 93 % of control | T/C (dose: 160.0 mg/kg/injection, schedule: Q04DX002 (ip), vehicle: saline with Tween-80): 93 % of control | T/C (dose: 400.0 mg/kg/injection, schedule: Q04DX002 (ip), vehicle: saline with Tween-80): 112 % of control

CC(=O)c1cccc2c1cc(Cl)c1ccccc12
T/C (dose: 55.0 mg/kg/injection, schedule: Q01DX Z (ip), vehicle: methylcellulose (MC)): 100 % of control | T/C (dose: 83.0 mg/kg/injection, schedule: Q01DX Z (ip), vehicle: methylcellulose (MC)): 93 % of control | T/C (dose: 125.0 mg/kg/injection, schedule: Q01DX Z (ip), vehicle: methylcellulose (MC)): 93 % of control

COCCO
T/C [7]: 105 % of control | T/C [8]: 103 % of control | T/C [9]: 105 % of control

CC(CNC1CCCCC1)OC(=O)c1ccc(N)cc1 (stereo not drawn)
T/C [12]: 100 % of control

Nc1nc(SN=Nc2ccc([As](=O)(O)O)cc2)c2[nH]cnc2n1
T/C (dose: 0.5 mg/kg/injection, schedule: Q01DX Z (ip), vehicle: other): 110 % of control | T/C (dose: 0.7 mg/kg/injection, schedule: Q01DX Z (ip), vehicle: other): 114 % of control | T/C (dose: 1.25 mg/kg/injection, schedule: Q01DX015 (ip), vehicle: carboxymethylcellulose (CMC)): 106 % of control | T/C (dose: 1.3 mg/kg/injection, schedule: Q01DX Z (ip), vehicle: other): 107 % of control | T/C (dose: 2.5 mg/kg/injection, schedule: Q01DX015 (ip), vehicle: carboxymethylcellulose (CMC)): 115 % of control | T/C (dose: 10.0 mg/kg/injection, schedule: Q01DX015 (ip), vehicle: carboxymethylcellulose (CMC)): 159 % of control | T/C (dose: 11.0 mg/kg/injection, schedule: Q01DX Z (ip), vehicle: other): 151 % of control and 154 % of control | T/C (dose: 25.0 mg/kg/injection, schedule: Q## X001 (ip), vehicle: carboxymethylcellulose (CMC)): 113 % of control | T/C (dose: 50.0 mg/kg/injection, schedule: Q## X001 (ip), vehicle: carboxymethylcellulose (CMC)): 123 % of control | T/C (dose: 56.0 mg/kg/injection, schedule: Q01DX Z (ip), vehicle: other): 106 % of control

COC1(OC)C2(Cl)C=CC1(Cl)C1CC12 (stereo not drawn)
T/C (dose: 100.0 mg/kg/injection, schedule: Q04DX002 (ip), vehicle: Klucel (hydroxypropylcellulose) (HPC)): 97 % of control | T/C (dose: 200.0 mg/kg/injection, schedule: Q04DX002 (ip), vehicle: Klucel (hydroxypropylcellulose) (HPC)): 107 % of control | T/C (dose: 400.0 mg/kg/injection, schedule: Q04DX002 (ip), vehicle: Klucel (hydroxypropylcellulose) (HPC)): 100 % of control

COCCN=C(N)C(N)=NCCOC
T/C (dose: 100.0 mg/kg/injection, schedule: Q04DX003 (ip), vehicle: saline with Tween-80): 102 % of control | T/C [4]: 97 % of control | T/C (dose: 200.0 mg/kg/injection, schedule: Q04DX003 (ip), vehicle: saline with Tween-80): 102 % of control | T/C [5]: 100 % of control | T/C (dose: 400.0 mg/kg/injection, schedule: Q04DX003 (ip), vehicle: saline with Tween-80): 95 % of control | T/C [6]: 88 % of control

Cc1ccc[n+](CC(=O)c2ccccc2)c1
T/C (dose: 0.19 mg/kg/injection, schedule: Q04DX003 (ip), vehicle: saline): 102 % of control | T/C (dose: 0.39 mg/kg/injection, schedule: Q01DX009 (ip), vehicle: saline): 98 % of control | T/C (dose: 0.39 mg/kg/injection, schedule: Q04DX003 (ip), vehicle: saline): 98 % of control | T/C (dose: 0.78 mg/kg/injection, schedule: Q01DX009 (ip), vehicle: saline): 106 % of control | T/C (dose: 0.78 mg/kg/injection, schedule: Q04DX003 (ip), vehicle: saline): 96 % of control | T/C (dose: 1.56 mg/kg/injection, schedule: Q04DX003 (ip), vehicle: saline): 98 % of control | T/C [12]: 97 % of control | T/C (dose: 150.0 mg/kg/injection, schedule: Q01DX001 (ip), vehicle: saline): 90 % of control | T/C (dose: 300.0 mg/kg/injection, schedule: Q01DX001 (ip), vehicle: saline): 88 % of control

CCOC1C(Br)=Cc2ccccc2N1C(=O)OC (stereo not drawn)
T/C [1]: 101 % of control | T/C [2]: 97 % of control | T/C [3]: 101 % of control

CCOC(=O)C1C2OC(=O)C(C(=O)C2CN(CCCl)CCCl)C1c1ccc(OC(C)=O)cc1 (stereo not drawn)
T/C [10]: 93 % of control | T/C [11]: 101 % of control | T/C (dose: 200.0 mg/kg/injection, schedule: Q04DX003 (ip), vehicle: Klucel (hydroxypropylcellulose) (HPC)): 103 % of control | T/C (dose: 400.0 mg/kg/injection, schedule: Q04DX003 (ip), vehicle: Klucel (hydroxypropylcellulose) (HPC)): 97 % of control

CCCOc1cccc(C(=N)N)c1
T/C (dose: 75.0 mg/kg/injection, schedule: Q01DX001 (ip), vehicle: Klucel (hydroxypropylcellulose) (HPC)): 97 % of control | T/C (dose: 150.0 mg/kg/injection, schedule: Q01DX001 (ip), vehicle: Klucel (hydroxypropylcellulose) (HPC)): 96 % of control | T/C (dose: 300.0 mg/kg/injection, schedule: Q01DX001 (ip), vehicle: Klucel (hydroxypropylcellulose) (HPC)): 96 % of control

CC(=O)NCCc1ccc(N)cc1
T/C [7]: 108 % of control | T/C [8]: 101 % of control | T/C [9]: 98 % of control

CC(C)(C)c1ccc(OC(=O)Nc2cccc(C(F)(F)F)c2)cc1
T/C (dose: 100.0 mg/kg/injection, schedule: Q01DX009 (ip), vehicle: gum acacia): 101 % of control | T/C (dose: 200.0 mg/kg/injection, schedule: Q01DX009 (ip), vehicle: gum acacia): 95 % of control | T/C (dose: 400.0 mg/kg/injection, schedule: Q01DX009 (ip), vehicle: gum acacia): 103 % of control

CC(C)NC=O
T/C [7]: 96 % of control | T/C [8]: 102 % of control | T/C [9]: 104 % of control
